Patent publication US20250092033A1, “HETEROAROMATIC NITROGEN-OXIDE COMPOUND, PREPARATION METHOD THEREFOR, AND USE THEREOF” (BEIJING AVISTONE BIOTECHNOLOGY CO., LTD., priority 2021, published 2025)

Key:
[1] = target: T1, wild type (WT) MET kinase (Homo sapiens, UniProt P08581); assay: Kinase inhibition experiment (HTRF KinEASE-TK kit), wild-type MET; format: biochemical; details: 10 concentrations, 3-fold dilution
T1 construct: purchased Carna 08-151
Protocol: (§1) The activity of the compounds was determined by detecting the residual amount of ATP after reacting with wild-type or mutant MET protein kinase by using an HTRF KinEASE-TK kit. […]
(§2) The compounds were determined on the selected kinase, the solvent control was set and a total of 10 concentrations were detected, diluted 3-fold, 2 replicates per concentration.
(§3) 1 volume of 5× kinase reaction buffer and 4 volumes of water; 5 mM MgCl2; 1 mM DTT; 1 mM MnCl2; or 2500 nm SEB.
(§4) 1) 10 nl or 4 μlof the diluted compound was transferred to each well of the reaction plate (784075 or 264706, Greiner or Thermo) with a pipette, the reaction plate was sealed with a sealing plate, and centrifuged at 1000 for 1 minute.
(§5) 2) 2× MET was prepared from 1× enzyme reaction buffer, 5 μl or 2 μl kinase was added to each well of the reaction plate, the reaction plate was sealed with a sealing plate, centrifuged at 1000 g for 30 seconds and incubated at room temperature for 10 min.
(§6) 3) a mixed solution of 2× TK-substrate-biotin and ATP were prepared from 1× enzyme reaction buffer solution, 5 μl or 2 μl TK-substrate-biotin/ATP of the mixed solution was added into a reaction plate, the reaction plate was sealed with a sealing plate, centrifuged at 1000 g for 30 seconds and reacted for 50 minutes or 10 minutes at room temperature.
(§7) 4) a mixed solution of 4× or 2× Sa-XL 665 and TK-antibody-Cryptate were prepared from HTRF detection buffer, 5 or 10 μl of the mixed solution of Sa-XL 665 and TK-antibody-Cryptate was added into each well, centrifuged at 1000 g for 30 seconds, and reacted at room temperature for 1 h.
(§8) 5) the fluorescence signals at 615 nm (cryptate) and 665 nm (XL665) were read with Envision 2104 or TECAN.
(§9) The data was analyzed using GraphPad Prism 6.0 or 7 software, and the dose-response curve was fitted with nonlinear S-curve regression, and the IC50 value was calculated therefrom.
(§10) Enzyme Inhibition Percent (%)=100-(Signalmpd-SignalAve_PC)/(SignalAve_VC-SignalAve_PC)×100

MET F1200I = target: T2, MET F1200I (Homo sapiens, UniProt P08581, F1200I); assay: Kinase inhibition experiment (HTRF KinEASE-TK kit), mutant MET F1200I; format: biochemical; details: 10 concentrations, 3-fold dilution
T2 construct: purchased Signalchem M52-12GG/Y767-2
T2 sequence (P08581 25-1390 F1200I): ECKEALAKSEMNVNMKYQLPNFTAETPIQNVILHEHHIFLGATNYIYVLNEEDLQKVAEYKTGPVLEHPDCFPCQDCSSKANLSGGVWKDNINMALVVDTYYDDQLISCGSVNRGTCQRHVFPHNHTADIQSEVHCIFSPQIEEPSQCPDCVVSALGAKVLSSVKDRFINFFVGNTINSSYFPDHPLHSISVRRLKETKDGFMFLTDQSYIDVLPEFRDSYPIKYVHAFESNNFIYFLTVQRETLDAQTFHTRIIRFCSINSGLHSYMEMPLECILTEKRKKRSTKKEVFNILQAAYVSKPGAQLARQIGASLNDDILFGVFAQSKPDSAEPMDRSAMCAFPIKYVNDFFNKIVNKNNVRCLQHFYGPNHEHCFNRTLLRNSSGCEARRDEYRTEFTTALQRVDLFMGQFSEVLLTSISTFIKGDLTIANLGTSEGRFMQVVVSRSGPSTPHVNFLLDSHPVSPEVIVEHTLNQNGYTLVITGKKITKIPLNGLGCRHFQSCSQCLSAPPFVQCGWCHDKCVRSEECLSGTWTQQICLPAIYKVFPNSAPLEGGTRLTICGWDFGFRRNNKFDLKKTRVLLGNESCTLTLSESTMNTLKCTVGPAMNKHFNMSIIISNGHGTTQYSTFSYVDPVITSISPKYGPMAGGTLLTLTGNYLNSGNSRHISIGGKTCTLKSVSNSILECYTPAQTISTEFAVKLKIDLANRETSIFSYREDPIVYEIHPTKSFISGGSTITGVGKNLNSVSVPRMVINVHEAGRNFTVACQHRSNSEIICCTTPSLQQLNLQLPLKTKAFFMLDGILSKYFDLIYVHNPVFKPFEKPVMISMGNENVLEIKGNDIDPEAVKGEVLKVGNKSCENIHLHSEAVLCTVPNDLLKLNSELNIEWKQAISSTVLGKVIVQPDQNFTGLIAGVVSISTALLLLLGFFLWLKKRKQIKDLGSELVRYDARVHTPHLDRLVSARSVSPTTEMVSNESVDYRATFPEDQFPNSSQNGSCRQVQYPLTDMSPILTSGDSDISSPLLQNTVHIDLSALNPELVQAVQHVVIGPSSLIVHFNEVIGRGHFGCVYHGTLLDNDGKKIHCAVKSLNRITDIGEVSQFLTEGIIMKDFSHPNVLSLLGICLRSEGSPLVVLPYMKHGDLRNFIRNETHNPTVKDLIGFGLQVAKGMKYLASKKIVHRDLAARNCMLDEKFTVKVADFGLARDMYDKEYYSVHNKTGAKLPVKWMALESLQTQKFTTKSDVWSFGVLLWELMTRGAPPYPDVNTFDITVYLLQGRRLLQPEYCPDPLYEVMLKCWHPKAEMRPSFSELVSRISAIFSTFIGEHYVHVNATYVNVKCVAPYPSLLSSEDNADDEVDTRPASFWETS
Protocol: as §1, §2, §3, §4, §5, §6, §7, §8, §9, §10

MET D1228N = target: T3, MET D1228N (Homo sapiens, UniProt P08581, D1228N); assay: Kinase inhibition experiment (HTRF KinEASE-TK kit), mutant MET D1228N; format: biochemical; details: 10 concentrations, 3-fold dilution
T3 construct: purchased Signalchem M52-12IG
T3 sequence (P08581 25-1390 D1228N): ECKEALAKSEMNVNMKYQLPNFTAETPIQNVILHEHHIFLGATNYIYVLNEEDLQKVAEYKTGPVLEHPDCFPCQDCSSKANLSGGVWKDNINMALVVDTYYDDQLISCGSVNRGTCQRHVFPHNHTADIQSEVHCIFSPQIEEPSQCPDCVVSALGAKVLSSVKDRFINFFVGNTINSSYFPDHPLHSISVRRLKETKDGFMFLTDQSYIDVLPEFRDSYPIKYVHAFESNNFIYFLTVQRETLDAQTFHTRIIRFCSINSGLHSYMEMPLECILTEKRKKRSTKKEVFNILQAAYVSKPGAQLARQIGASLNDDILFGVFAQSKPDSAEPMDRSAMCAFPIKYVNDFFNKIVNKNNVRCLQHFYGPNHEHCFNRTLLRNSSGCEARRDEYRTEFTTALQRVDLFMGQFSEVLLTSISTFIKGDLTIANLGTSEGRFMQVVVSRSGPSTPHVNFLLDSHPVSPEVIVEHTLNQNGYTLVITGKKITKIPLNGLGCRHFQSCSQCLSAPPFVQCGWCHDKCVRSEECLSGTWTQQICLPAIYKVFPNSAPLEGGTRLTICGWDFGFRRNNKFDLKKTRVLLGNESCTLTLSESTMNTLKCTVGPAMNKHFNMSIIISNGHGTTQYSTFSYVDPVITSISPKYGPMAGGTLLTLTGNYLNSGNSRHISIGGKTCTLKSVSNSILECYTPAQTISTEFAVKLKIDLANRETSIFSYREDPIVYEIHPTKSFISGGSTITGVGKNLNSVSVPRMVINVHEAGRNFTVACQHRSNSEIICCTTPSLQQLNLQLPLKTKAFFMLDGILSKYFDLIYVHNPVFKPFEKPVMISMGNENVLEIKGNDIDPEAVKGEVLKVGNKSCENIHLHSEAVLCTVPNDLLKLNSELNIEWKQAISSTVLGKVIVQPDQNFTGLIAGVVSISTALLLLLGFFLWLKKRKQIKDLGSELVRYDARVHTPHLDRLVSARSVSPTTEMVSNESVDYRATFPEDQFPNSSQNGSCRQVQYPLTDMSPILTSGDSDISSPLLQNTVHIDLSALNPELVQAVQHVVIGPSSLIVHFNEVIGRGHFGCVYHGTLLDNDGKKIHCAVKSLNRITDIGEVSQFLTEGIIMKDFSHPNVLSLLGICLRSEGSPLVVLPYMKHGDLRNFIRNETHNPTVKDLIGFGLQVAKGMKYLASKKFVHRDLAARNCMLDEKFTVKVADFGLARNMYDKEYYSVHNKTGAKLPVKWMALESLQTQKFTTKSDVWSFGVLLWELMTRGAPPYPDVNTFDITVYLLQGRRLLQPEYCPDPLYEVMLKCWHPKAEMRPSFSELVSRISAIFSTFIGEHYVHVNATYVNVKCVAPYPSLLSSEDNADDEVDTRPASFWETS
Protocol: as §1, §2, §3, §4, §5, §6, §7, §8, §9, §10

Hs746T cell line = assay: Cell proliferation inhibition experiment (CellTiter-Glo), Hs746T; format: cell-based; details: Homo sapiens, Hs 746T, CTG, 72 h
Protocol: (§11) CellTiter-Glo™ live cell detection kit adopts luciferase as the detection substance, and the luciferase needs the participation of ATP in the luminescence process. CellTiter-Glo™ reagent was added into the cell culture medium and the luminescence value was measured. The light signal is in direct proportion to the amount of ATP in the system, ATP is in direct correlation with number of living cells. Therefore, the proliferation of cells can be detected by detecting the content of ATP with CellTiter-Glo kit.
(§12) In the experiment, the proliferation inhibition effect of the prepared compounds on tumor cell lines Hs746T, EBC-1 and H1993 was measured by a celltiter-glo (CTG) method, and 50% inhibition concentration IC50 was calculated.
(§13) The compounds were determined on the selected cells, the solvent control was set and a total of 10 concentrations were detected, 2 replicates per concentration.
(§14) a) Cells in the logarithmic growth phase were harvested and counted by a […]. The cell viability was detected by a trypan blue exclusion method to ensure that the cell viability was over 90%.
(§15) b) The cell concentration was adjusted; 30 μL of cell suspension was added to a 384-well plate respectively.
(§16) c) Cells in a 384-well plate were incubated overnight at 37° C., 5% CO2 and 95% humidity.
(§17) a) 10 times of drug solution was prepared with the highest concentration of 10 mM, 10 concentrations and 3 times dilution, 10 μL of drug solution was added into each well of a 384-well plate inoculated with cells, and three multiple wells were arranged for each drug concentration. DMSO was the blank control.
(§18) b) The cells in the 384-well plate were incubated for a further 72 h at 37° C., 5% CO2 and 95% humidity before CTG analysis.
(§19) a) The CTG reagent was melted and the cell plate was equilibrated to room temperature for 30 min.
(§20) b) An equal volume of CTG solution was added to each well.
(§21) c) Cells were lysed by shaking on an orbital shaker for 5 minutes.
(§22) d) The cell plate was left at room temperature for 20 minutes to stabilize the luminescence signal.
(§23) e) The cold light value was read.
(§24) The data was analyzed by GraphPad Prism 8 software, and the dose-response curve was fitted with nonlinear S-curve regression, and the IC50 value was calculated therefrom.
(§25) Cell viability(%)=(Lumdrugs to be tested-Lumblank control)/(Lumcell control-Lumblank control)×100%.

H1993 cell line = assay: Cell proliferation inhibition experiment (CellTiter-Glo), H1993; format: cell-based; details: Homo sapiens, NCI-H1993, CTG, 72 h
Protocol: as §11, §12, §13, §14, §15, §16, §17, §18, §19, §20, §21, §22, §23, §24, §25

EBC-1 cell line = assay: Cell proliferation inhibition experiment (CellTiter-Glo), EBC-1; format: cell-based; details: Homo sapiens, CTG, 72 h
Protocol: as §11, §12, §13, §14, §15, §16, §17, §18, §19, §20, §21, §22, §23, §24, §25

T1 sequence (P08581 25-1390): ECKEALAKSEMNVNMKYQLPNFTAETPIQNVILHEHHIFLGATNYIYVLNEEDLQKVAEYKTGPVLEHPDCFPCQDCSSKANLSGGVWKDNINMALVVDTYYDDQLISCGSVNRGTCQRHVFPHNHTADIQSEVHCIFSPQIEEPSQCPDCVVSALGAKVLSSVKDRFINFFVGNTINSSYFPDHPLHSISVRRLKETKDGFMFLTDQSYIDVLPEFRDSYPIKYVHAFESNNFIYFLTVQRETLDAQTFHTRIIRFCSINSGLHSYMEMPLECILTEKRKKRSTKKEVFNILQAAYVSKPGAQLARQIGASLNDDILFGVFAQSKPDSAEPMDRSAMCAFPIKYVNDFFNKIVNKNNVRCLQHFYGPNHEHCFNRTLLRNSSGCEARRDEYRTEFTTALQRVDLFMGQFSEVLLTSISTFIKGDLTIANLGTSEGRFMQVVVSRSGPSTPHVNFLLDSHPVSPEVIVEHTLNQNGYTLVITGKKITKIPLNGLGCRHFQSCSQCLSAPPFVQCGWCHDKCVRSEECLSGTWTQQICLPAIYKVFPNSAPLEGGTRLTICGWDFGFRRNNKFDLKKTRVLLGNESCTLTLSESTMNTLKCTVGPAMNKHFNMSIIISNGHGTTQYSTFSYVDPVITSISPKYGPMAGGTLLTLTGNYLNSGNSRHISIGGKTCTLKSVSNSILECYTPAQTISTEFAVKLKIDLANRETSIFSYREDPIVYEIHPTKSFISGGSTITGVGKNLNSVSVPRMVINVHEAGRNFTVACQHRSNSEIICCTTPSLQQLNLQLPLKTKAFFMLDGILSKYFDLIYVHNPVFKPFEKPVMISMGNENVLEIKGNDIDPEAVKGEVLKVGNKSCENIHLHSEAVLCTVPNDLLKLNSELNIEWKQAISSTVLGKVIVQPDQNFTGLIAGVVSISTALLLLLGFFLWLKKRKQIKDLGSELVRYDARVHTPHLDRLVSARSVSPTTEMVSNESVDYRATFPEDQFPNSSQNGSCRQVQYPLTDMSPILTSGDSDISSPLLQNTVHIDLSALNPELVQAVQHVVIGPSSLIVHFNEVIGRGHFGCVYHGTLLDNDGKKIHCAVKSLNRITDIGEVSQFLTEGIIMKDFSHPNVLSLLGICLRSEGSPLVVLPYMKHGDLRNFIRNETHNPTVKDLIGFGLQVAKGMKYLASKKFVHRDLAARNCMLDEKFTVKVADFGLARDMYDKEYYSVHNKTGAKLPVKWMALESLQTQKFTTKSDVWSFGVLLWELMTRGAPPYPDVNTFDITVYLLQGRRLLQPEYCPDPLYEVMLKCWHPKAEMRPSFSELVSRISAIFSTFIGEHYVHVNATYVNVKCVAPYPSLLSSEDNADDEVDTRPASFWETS

| IC50 [1] | IC50 (MET F1200I) | IC50 (MET D1228N) | IC50 (H1993 cell line) | Structure (SMILES) | IC50 (Hs746T cell line) | IC50 (EBC-1 cell line) |
| --- | --- | --- | --- | --- | --- | --- |
| 1.5 nM | 2.3 nM | 9.8 nM | 26.8 nM | CCc1ccc(C(=O)Nc2ccc(Oc3ccnc4[nH]nc(N[C@H](C)CO)c34)c(F)c2)[n+]([O-])c1-c1ccc(F)cc1 [Final product 80] | 9.6 nM | 8.7 nM |
| 3.7 nM | 2.3 nM | 10.5 nM | 29.6 nM | COc1ccc(C(=O)Nc2ccc(Oc3ccnc4[nH]nc(N[C@H](C)CO)c34)c(F)c2)[n+]([O-])c1-c1ccc(F)cc1 [Final product 85] | 9.4 nM | 10.4 nM |
| 3.3 nM | 7 nM | 20.8 nM | 36.4 nM | C[C@H](CO)Nc1n[nH]c2nccc(Oc3ccc(NC(=O)c4cccc(-c5ccc(F)cc5)[n+]4[O-])cc3Cl)c12 [Final product 97] | 12.1 nM | 12.9 nM |
| 0.9 nM | 0.9 nM | 17.8 nM | 57.2 nM | C[C@H](CO)Nc1n[nH]c2nccc(Oc3ccc(NC(=O)c4ccc(F)c(-c5ccc(F)cc5)[n+]4[O-])cc3Cl)c12 [Final product 117] | 7 nM | 17.2 nM |
| 0.8 nM | 0.8 nM | 7.6 nM | 29.9 nM | Cc1ccc(C(=O)Nc2ccc(Oc3ccnc4[nH]nc(N[C@H](C)CO)c34)c(Cl)c2)[n+]([O-])c1-c1ccc(F)cc1 [Final product 124] | 21.9 nM | 14.9 nM |
| 1.6 nM | 0.6 nM | 38.5 nM | 29.3 nM | COc1ccc(C(=O)Nc2ccc(Oc3ccnc4[nH]nc(N[C@H](C)CO)c34)c(Cl)c2)[n+]([O-])c1-c1ccc(F)cc1 [Final product 138] | 8.7 nM | 9.4 nM |
| 3.8 nM | 9.2 nM | 13.9 nM |  | O=C(Nc1ccc(Oc2ncnc3ccn(CCCO)c23)c(F)c1)c1cccc(-c2ccc(F)cc2)[n+]1[O-] [Final product 168, 2-((3-fluoro-4-((5-(3-hydroxypropyl)-5H-pyrrolo[3,2-d]pyrimidin-4-yl)oxy)phenyl)carbamoyl)-6-(4-fluorophenyl)pyridine 1-oxide] | 65.4 nM | 56.7 nM |
| 20.4 nM | 187 nM | 62 nM | 204 nM | O=C(Nc1ccc(Oc2ccnc3[nH]cc(-c4cccnc4)c23)c(F)c1)c1ccc(Cl)c(-c2ccc(F)cc2)[n+]1[O-] [Final product 185, reference compound] | 155 nM | 133 nM |

The remaining lines, values behind:

| Structure (SMILES) | IC50 [1] | IC50 (MET F1200I) | IC50 (MET D1228N) | IC50 (H1993 cell line) | IC50 (Hs746T cell line) | IC50 (EBC-1 cell line) |
| --- | --- | --- | --- | --- | --- | --- |
| C[C@H](CO)Nc1n[nH]c2nccc(Oc3ccc(NC(=O)c4cccc(-c5ccc(F)cc5)[n+]4[O-])cc3F)c12 [Final Product 2, (R)-2-((3-fluoro-4-((3-((1-hydroxypropan-2-yl)amino)-1H-pyrazolo[3,4-b]pyridin-4-yl)oxy)phenyl)carbamoyl)-6-(4-fluorophenyl)pyridine 1-oxide] | 0.9 nM | 3 nM | 18 nM | 31.8 nM | 8.5 nM | 12.6 nM |
| CCC(CO)Nc1n[nH]c2nccc(Oc3ccc(NC(=O)c4cccc(-c5ccc(F)cc5)[n+]4[O-])cc3F)c12 (stereo not shown) [Final product 4] | 2.2 nM | 10 nM | 15.7 nM | 54.9 nM | 12.6 nM | 14.4 nM |
| O=C(Nc1ccc(Oc2ccnc3[nH]nc(NC4COCC4O)c23)c(F)c1)c1cccc(-c2ccc(F)cc2)[n+]1[O-] (stereo not shown) [Final product 24] | 2.5 nM | 9.5 nM | 29.5 nM |  | 14.5 nM | 20.1 nM |
| O=C(Nc1ccc(Oc2ccnc3[nH]nc(N4CCC(CO)CC4)c23)c(F)c1)c1cccc(-c2ccc(F)cc2)[n+]1[O-] [Final product 28] | 3 nM | 9.6 nM | 34.5 nM |  | 14 nM | 17.1 nM |
| O=C(Nc1ccc(Oc2ccnc3[nH]nc(N4CC5(CC(O)C5)C4)c23)c(F)c1)c1cccc(-c2ccc(F)cc2)[n+]1[O-] [Final product 36] | 4 nM | 6.7 nM | 25.1 nM |  | 9.9 nM | 15.1 nM |
| C[C@H](CO)Nc1n[nH]c2nccc(Oc3ccc(NC(=O)c4cccc(-c5ccc(F)cc5F)[n+]4[O-])cc3F)c12 [Final product 44] | 2.5 nM | 6.7 nM | 14.8 nM | 85.3 nM | 15.2 nM | 21.3 nM |
| C[C@H](CO)Nc1n[nH]c2nccc(Oc3ccc(NC(=O)c4ccc(F)c(-c5ccc(F)cc5)[n+]4[O-])cc3F)c12 [Final product 53] | 2 nM | 8.7 nM | 4.8 nM | 29 nM | 14.6 nM | 15.7 nM |
| C[C@H](CO)Nc1n[nH]c2nccc(Oc3ccc(NC(=O)c4ccc(Cl)c(-c5ccc(F)cc5)[n+]4[O-])cc3F)c12 [Final product 57] | 1.6 nM | 2.8 nM | 28.5 nM | 59.5 nM | 11.4 nM | 19.6 nM |
| CC[C@H](CO)Nc1n[nH]c2nccc(Oc3ccc(NC(=O)c4ccc(Cl)c(-c5ccc(F)cc5)[n+]4[O-])cc3F)c12 [Final product 58] | 4.9 nM | 16.1 nM | 15.9 nM | 16.4 nM | 12.8 nM | 13.2 nM |
| O=C(Nc1ccc(Oc2ccnc3[nH]nc(N[C@@H]4CCC(O)C4)c23)c(F)c1)c1ccc(Cl)c(-c2ccc(F)cc2)[n+]1[O-] (stereo partly shown) [Final product 63] | 4.7 nM | 13.1 nM | 26.6 nM |  | 4.6 nM | 13.4 nM |
| Cc1ccc(C(=O)Nc2ccc(Oc3ccnc4[nH]nc(N[C@H](C)CO)c34)c(F)c2)[n+]([O-])c1-c1ccc(F)cc1 [Final product 67] | 4 nM | 16.3 nM | 12.3 nM | 19.1 nM | 4.2 nM | 6.6 nM |
| Cc1ccc(C(=O)Nc2ccc(Oc3ccnc4[nH]nc(NCC(O)CO)c34)c(F)c2)[n+]([O-])c1-c1ccc(F)cc1 (stereo not shown) [Final product 69] | 3 nM | 12.3 nM | 25.4 nM | 68.4 nM | 19.6 nM | 29.3 nM |
